US20090156399A1, “Synergistic Insecticide Mixtures” (Bayer CropScience AG, priority 2005, published 2009)

System: Myzus persicae
Experiment: Myzus persicae test (cabbage leaf dip)
Type: in vivo
Source text: The expected activity for a given combination of two active compounds can be calculated (cf. COLBY, S. R.; “Calculating Synergistic and Antagonistic Responses of Herbicide Combinations”, Weeds 15, pages 20-22, 1967):
if • X=the kill rate, expressed in % of the untreated control, when employing active compound A at an application rate of m ppm, • Y=the kill rate, expressed in % of the untreated control, when employing active compound B at an application rate of n ppm, • E=the kill rate, expressed in % of the untreated control, when employing active compounds A and B at application rates of m and n ppm, then
If the actual insecticidal kill rate is higher than the calculated one, the kill rates of the combination are superadditive, i.e. a synergistic effect is present. In this case, the kill rate that is actually observed has to be higher than the value, calculated using the formula above, for the expected kill rate (E).
To produce a suitable preparation of active compound, 1 part by weight of active compound is mixed with the stated amounts of solvent and emulsifier, and the concentrate is diluted with emulsifier-containing water to the desired concentration. […]
After the desired period of time, the kill in % is determined. […] The determined kill rates are entered into Colby's formula (see page 27).

| SMILES | Kill in % after 6d (0.16 ppm, cabbage leaves dipped, after 6 d) [%] | Kill in % after 1d (0.8 ppm, cabbage leaves (Brassica oleracea) dipped, after 1 d) [%] |
| --- | --- | --- |
| CN/C(=N\[N+](=O)[O-])NCc1cnc(Cl)s1 [Clothianidin] | 0 | – |
| N#C/N=C1\SCCN1Cc1ccc(Cl)nc1 [Thiacloprid] | – | 30 |
